# Reference: PMC11676667, “Pharmacokinetics of Oral Cannabinoid Δ8-Tetrahydrocannabivarin and Its Main Metabolites in Healthy Participants” (Pharmaceuticals, 2024)
# Read-outs that look alike come from different tables or passages of the source.
# Assay: Plasma pharmacokinetics after single oral dose of Δ8-THCV in MCT oil (LC-MS/MS, non-compartmental analysis)
# Assay type: in vivo, human
# Set-up: Clast (last quantifiable concentration): unit not given here
# Settings: for Clast (last quantifiable concentration) / tlast (time to last quantifiable concentration) / concentration at 0.5 h / concentration at 1 h / concentration at 2 h / concentration at 4 h / concentration at 6 h / concentration at 8 h / AUC(0-t) / Cmax / MRT / Tmax: plasma; for plasma concentration: Predose; for concentration at 0.5 h / concentration at 1 h / concentration at 2 h / concentration at 4 h / concentration at 6 h / concentration at 8 h / AUC(0-t) / Cmax / MRT / Tmax: human; for concentration at 0.5 h / concentration at 1 h / concentration at 2 h / concentration at 4 h / concentration at 6 h / concentration at 8 h: oral; for AUC(0-t) / Cmax / MRT / Tmax: po; for MRT: read-out: MRT (mean residence time); for Tmax: read-out: tmax
# Summary of the method: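 Healthy participants received single oral Δ8-THCV in MCT oil (50 mg/mL; 12.5-200 mg, or placebo) after a high-fat, high-calorie breakfast, with ≥1-week washout. Plasma (K2EDTA) sampled predose and 0.5-8 h post-dose, assayed by validated LC-MS/MS including metabolites; PK by non-compartmental analysis, sub-LLOQ values set to 0.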
# [1] = 100 mg single oral Δ8-THCV in MCT oil, Mean (±SD)
# [2] = 100 mg single oral Δ8-THCV in MCT oil, Median (Range)
# [3] = 200 mg single oral Δ8-THCV in MCT oil, Mean (±SD)
# [4] = 200 mg single oral Δ8-THCV in MCT oil, Median (Range)
# [5] = 12.5 mg, 12.5 mg Δ8-THCV dose, Mean (SD, %CV)
# [6] = 12.5 mg, 12.5 mg Δ8-THCV dose, Median (IQ Range)
# [7] = 25 mg, 25 mg Δ8-THCV dose, Mean (SD, %CV)
# [8] = 25 mg, 25 mg Δ8-THCV dose, Median (IQ Range)
# [9] = 50 mg, 50 mg Δ8-THCV dose, Mean (SD, %CV)
# [10] = 50 mg, 50 mg Δ8-THCV dose, Median (IQ Range)
# [11] = 100 mg, 100 mg Δ8-THCV dose, Mean (SD, %CV)
# [12] = 100 mg, 100 mg Δ8-THCV dose, Median (IQ Range)
# [13] = 200 mg, 200 mg Δ8-THCV dose, Mean (SD, %CV)
# [14] = 200 mg, 200 mg Δ8-THCV dose, Median (IQ Range)
# [15] = 100 mg, 100 mg single oral Δ8-THCV in MCT oil, Mean (±SD)
# [16] = 100 mg, 100 mg single oral Δ8-THCV in MCT oil, Median (Range)
# [17] = 200 mg, 200 mg single oral Δ8-THCV in MCT oil, Mean (±SD)
# [18] = 200 mg, 200 mg single oral Δ8-THCV in MCT oil, Median (Range)
smiles,measurement,setting,value
"CCCc1cc(O)c2c(c1)OC(C)(C)[C@@H]1CCC(C)=C[C@@H]21 [Δ9-THCV, Δ9-tetrahydrocannabivarin]",Clast (last quantifiable concentration),[1],1.1 (±0.5)
same,tlast (time to last quantifiable concentration),[1],4.8 (±1.5)
same,Clast (last quantifiable concentration),[2],0.8 (0.5–1.9)
same,tlast (time to last quantifiable concentration),[2],5 (2–6)
same,Clast (last quantifiable concentration),[3],1.5 (±1)
same,tlast (time to last quantifiable concentration),[3],6.2 (±2.1)
same,Clast (last quantifiable concentration),[4],1.4 (0.5–4.1)
same,tlast (time to last quantifiable concentration),[4],6 (2–8)
same,plasma concentration,"12.5 mg Δ8-THCV dose, Mean (SD, %CV)","0 (±0, --) ng/mL"
same,plasma concentration,"12.5 mg Δ8-THCV dose, Median (IQ Range)",0 (0–0) ng/mL
same,plasma concentration,"25 mg Δ8-THCV dose, Mean (SD, %CV)","0 (±0, --) ng/mL"
same,plasma concentration,"25 mg Δ8-THCV dose, Median (IQ Range)",0 (0–0) ng/mL
same,plasma concentration,"50 mg Δ8-THCV dose, Mean (SD, %CV)","0 (±0, --) ng/mL"
same,plasma concentration,"50 mg Δ8-THCV dose, Median (IQ Range)",0 (0–0) ng/mL
same,plasma concentration,"100 mg Δ8-THCV dose, Mean (SD, %CV)","0 (±0, --) ng/mL"
same,plasma concentration,"100 mg Δ8-THCV dose, Median (IQ Range)",0 (0–0) ng/mL
same,plasma concentration,"200 mg Δ8-THCV dose, Mean (SD, %CV)","0 (±0, --) ng/mL"
same,plasma concentration,"200 mg Δ8-THCV dose, Median (IQ Range)",0 (0–0) ng/mL
same,concentration at 0.5 h,[5],0 ng/mL
same,concentration at 0.5 h,[6],0 ng/mL
same,concentration at 1 h,[5],0 ng/mL
same,concentration at 1 h,[6],0 ng/mL
same,concentration at 2 h,[5],0 ng/mL
same,concentration at 2 h,[6],0 ng/mL
same,concentration at 4 h,[5],0 ng/mL
same,concentration at 4 h,[6],0 ng/mL
same,concentration at 6 h,[5],0 ng/mL
same,concentration at 6 h,[6],0 ng/mL
same,concentration at 8 h,[5],0 ng/mL
same,concentration at 8 h,[6],0 ng/mL
same,concentration at 0.5 h,[7],0 ng/mL
same,concentration at 0.5 h,[8],0 ng/mL
same,concentration at 1 h,[7],0 ng/mL
same,concentration at 1 h,[8],0 ng/mL
same,concentration at 2 h,[7],0 ng/mL
same,concentration at 2 h,[8],0 ng/mL
same,concentration at 4 h,[7],0 ng/mL
same,concentration at 4 h,[8],0 ng/mL
same,concentration at 6 h,[7],0 ng/mL
same,concentration at 6 h,[8],0 ng/mL
same,concentration at 8 h,[7],0 ng/mL
same,concentration at 8 h,[8],0 ng/mL
same,concentration at 0.5 h,[9],0 ng/mL
same,concentration at 0.5 h,[10],0 ng/mL
same,concentration at 1 h,[9],0 ng/mL
same,concentration at 1 h,[10],0 ng/mL
same,concentration at 2 h,[9],0 ng/mL
same,concentration at 2 h,[10],0 ng/mL
same,concentration at 4 h,[9],0 ng/mL
same,concentration at 4 h,[10],0 ng/mL
same,concentration at 6 h,[9],0.1 ng/mL
same,concentration at 6 h,[10],0 ng/mL
same,concentration at 8 h,[9],0 ng/mL
same,concentration at 8 h,[10],0 ng/mL
same,concentration at 0.5 h,[11],0 ng/mL
same,concentration at 0.5 h,[12],0 ng/mL
same,concentration at 1 h,[11],0.1 ng/mL
same,concentration at 1 h,[12],0 ng/mL
same,concentration at 2 h,[11],0.1 ng/mL
same,concentration at 2 h,[12],0 ng/mL
same,concentration at 4 h,[11],0.3 ng/mL
same,concentration at 4 h,[12],0 ng/mL
same,concentration at 6 h,[11],0.3 ng/mL
same,concentration at 6 h,[12],0 ng/mL
same,concentration at 8 h,[11],0 ng/mL
same,concentration at 8 h,[12],0 ng/mL
same,concentration at 0.5 h,[13],0 ng/mL
same,concentration at 0.5 h,[14],0 ng/mL
same,concentration at 1 h,[13],0 ng/mL
same,concentration at 1 h,[14],0 ng/mL
same,concentration at 2 h,[13],0.6 ng/mL
same,concentration at 2 h,[14],0 ng/mL
same,concentration at 4 h,[13],0.9 ng/mL
same,concentration at 4 h,[14],0.7 ng/mL
same,concentration at 6 h,[13],0.7 ng/mL
same,concentration at 6 h,[14],0.6 ng/mL
same,concentration at 8 h,[13],0.6 ng/mL
same,concentration at 8 h,[14],0 ng/mL
same,AUC(0-t),[15],1.4 ng·h/mL
same,Cmax,[15],1.1 ng/mL
same,AUC(0-t),[16],1.2 ng·h/mL
same,Cmax,[16],0.9 ng/mL
same,MRT,[15],4.4 h
same,Tmax,[15],4.6 h
same,MRT,[16],4.4 h
same,Tmax,[16],5 h
same,AUC(0-t),[17],4.8 ng·h/mL
same,Cmax,[17],2 ng/mL
same,AUC(0-t),[18],4.5 ng·h/mL
same,Cmax,[18],1.7 ng/mL
same,MRT,[17],4.5 h
same,Tmax,[17],4.9 h
same,MRT,[18],4.6 h
same,Tmax,[18],4 h
same,number of positive plasma samples,of 504 plasma samples from 15 participants after oral Δ8-THCV,42
same,concentration in representative plasma sample,"one subject after oral Δ8-THCV in MCT oil, Figure A1",2.4 ng/mL
